This note sets out measurements from ChEMBL document CHEMBL1201862, “PubChem BioAssay data set” (2004).

Structures are written as SMILES.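 48-hour exposure; five concentrations; linearly interpolated endpoints. At the GI50, growth is halved.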 Activity calls are given as the source filed them. No stated cut-off is given here; in the data, active = GI50 up to about 1.1 µM and inactive = higher.

Assay in all cases: inhibition of tumour cell growth, NCI panel, 48 h
Test [1] deals with NCI-H226.
Test [2] relates to SN12C.
Test [3] deals with SK-MEL-2.
Test [4] has as its system TK-10.
For test [5], the system named is OVCAR-4.
Test [6] concerns KM12.
Test [7] concerns SNB-19.
The subject of test [8] is HOP-18.
For test [9], the system named is A549.
For test [10], the system named is HCT-15.
The subject of test [11] is M14.
For test [12], the system named is SNB-75.
Test [13] concerns SK-MEL-28.
Test [14] deals with SK-OV-3.
The test system of test [15] is SF-295.
The test system of test [16] is EKVX.
The test system of test [17] is CAKI-1.
In test [18] the test system is MDA-MB-231.
In test [19] the test system is MDA-N.

`O=C1c2ccccc2C(=O)c2c(NCCNCCO)ccc(O)c21`: the GI50 in test [1] is 2.71 µM (inactive); in test [2], 1.45 µM (inactive); in test [3], 3.54 µM (inactive); in test [4], 4.65 µM (inactive); in [5] it was 2.85 µM (inactive); in test [6] it was 2.52 µM (inactive). The GI50 in test [7] was 2.89 µM (inactive); in [8], 9.27 µM (inactive); in test [9], 2.45 µM (inactive); in [10] it was 3.46 µM; in test [11] it was 3.23 µM (inactive); in test [12] it was 3.63 µM (inactive). The GI50 in [13] was 2.88 µM (inactive); in test [14], 2.55 µM (inactive); in [15], 4.35 µM (inactive); in [16] it was 3.98 µM (inactive); in [17] it was 2.64 µM (inactive).

Take `O=C1N=C(Nc2ccccc2Cl)SC1C(=O)Nc1ccc([N+](=O)[O-])cc1[N+](=O)[O-]` (centres undefined): the GI50 is 82.8 µM (inactive) in [1]; > 100 µM (inactive) in test [2]; > 100 µM (inactive) in [3]; 51.6 µM (inactive) in [4]; > 100 µM (inactive) in test [5]; > 100 µM (inactive) in [6]. Also, the GI50 is > 100 µM (inactive) in [7]; 22 µM (inactive) in [8]; > 100 µM (inactive) in [9]; more than 100 µM in test [10]; > 100 µM (inactive) in [11]; 66.1 µM (inactive) in test [12]. The GI50 in test [13], in test [14], in [15], in test [16] and in test [17] was > 100 µM (inactive) each time.

In the case of `CCOc1ccc(NCC2CC/C(=C\c3ccccc3OC)C2=O)cc1` (centres undefined), the GI50 in [1] is 18.6 µM (inactive); in test [2], 7.1 µM (inactive); in [3], 20.3 µM (inactive); in test [4], 13.8 µM (inactive); in [5], 6.38 µM (inactive); in test [6] it was 2.99 µM (inactive). Besides, the GI50 in test [7] is 15.9 µM (inactive); in [8], 15.3 µM (inactive); in test [9], 17.9 µM (inactive); in [10] it was 3.09 µM; in test [11], 3.64 µM (inactive); in [12], 14.6 µM (inactive). Also, the GI50 in test [13] was 11 µM (inactive); in [14] it was 17 µM (inactive); in test [15], 18 µM (inactive); in test [16] it was 17.4 µM (inactive); in test [17] it was 12.5 µM (inactive).

`COc1ccc(/N=N/c2c(N)nn(C)c2N)cc1`: the GI50 in test [1], in test [2], in test [3], in test [4], in test [5] and in test [6] was > 100 µM (inactive) throughout. Further, the GI50 is > 100 µM (inactive) in test [7]; 92.3 µM (inactive) in test [8]; > 100 µM (inactive) in test [9]; more than 100 µM in test [10]; > 100 µM (inactive) in [11]; 51.6 µM (inactive) in test [12]. Further, the GI50 in [13], in test [14], in [15], in test [16] and in test [17] was > 100 µM (inactive) in each case.

Turning to `O=C(/C=C/c1ccccc1)c1ccc(NCc2nc3ccccc3[nH]2)cc1`, the GI50 in test [1] was 4.19 µM (inactive); in test [2], 5.33 µM (inactive); in [3], 12.7 µM (inactive); in test [4], 11.7 µM (inactive); in [5], 9.23 µM (inactive); in test [6], 1.95 µM (inactive). The GI50 was 6.1 µM (inactive) in test [7]; 2.34 µM (inactive) in [8]; 4.35 µM (inactive) in [9]; 4.11 µM in [10]; 9.02 µM (inactive) in test [11]; 4.61 µM (inactive) in test [12]. The GI50 was 18 µM (inactive) in test [13]; 6.37 µM (inactive) in [14]; 3.48 µM (inactive) in test [15]; 8.65 µM (inactive) in [16]; 10.1 µM (inactive) in [17].

For the compound `O=C1[C@H]2ON(c3ccccc3)C(c3ccc(Cl)cc3)[C@H]2C(=O)N1c1ccc(Cc2ccc(N3C(=O)[C@@H]4ON(c5ccccc5)C(c5ccc(Cl)cc5)[C@@H]4C3=O)cc2)cc1` (some centres undefined), the GI50 in test [1], in test [2], in [3], in [4], in [5] and in test [6] was > 100 µM (inactive) each time. In addition, the GI50 in test [7] is > 100 µM (inactive); in test [8], > 100 µM (inactive); in [9], > 100 µM (inactive); in test [10], more than 100 µM; in test [11], 18.7 µM (inactive); in test [12] it was > 100 µM (inactive). The GI50 in test [13], in test [14], in [15], in test [16] and in [17] was > 100 µM (inactive) each time.

Regarding `O=C1C=CC2(C=C1)C[C@H](NC(=O)OCc1ccccc1)C(=O)O2`, the GI50 in [1] is 62.4 µM (inactive); in test [2], 18.2 µM (inactive); in test [3], 19.3 µM (inactive); in [4], 15.2 µM (inactive); in [5], 18.2 µM (inactive); in [6], 18.9 µM (inactive). Besides, the GI50 in test [7] is 99.5 µM (inactive); in [8], 16.7 µM (inactive); in test [9], 38.1 µM (inactive); in test [10], 11 µM; in [11], 15.5 µM (inactive); in test [12] it was 25.1 µM (inactive). Moreover, the GI50 in test [13] is 13 µM (inactive); in test [18] it was 17.5 µM (inactive); in [14], > 67.1 µM (inactive); in [15], 26.1 µM (inactive); in test [16] it was 12.9 µM (inactive); in test [17] it was 18 µM (inactive). In addition, the GI50 in test [19] is 14.8 µM (inactive).

`Cn1c2cc(O)cc(O)c2c(=O)c2c([N+](=O)[O-])cccc21`: the GI50 in [1], in test [2], in [3], in [4], in test [5] and in test [6] was > 100 µM (inactive) in each case. In addition, the GI50 in [7] is > 100 µM (inactive); in test [8], > 100 µM (inactive); in [9], > 100 µM (inactive); in [10], more than 100 µM; in test [11], > 100 µM (inactive); in test [12] it was > 100 µM (inactive). In addition, the GI50 in test [13], in test [14], in test [15], in test [16] and in test [17] was > 100 µM (inactive) each time.

For the compound `CCOC(=O)NC(=O)c1cn(CCCOC(=O)CCCCCCCCCCC(=O)OCCCn2cc(C(=O)NC(=O)OCC)c(=O)n(C)c2=O)c(=O)n(C)c1=O`, the GI50 in test [1], in test [2], in [3], in [4], in [5] and in [6] was > 100 µM (inactive) throughout. The GI50 was > 100 µM (inactive) in [7]; > 100 µM (inactive) in test [8]; > 100 µM (inactive) in [9]; more than 100 µM in [10]; > 100 µM (inactive) in test [11]; 47.9 µM (inactive) in test [12]. Also, the GI50 in [13], in [14], in test [15], in [16] and in test [17] was > 100 µM (inactive) each time.

`CCOC(=O)/C(I)=C/c1cc(OC)c(OC)c(OC)c1`: the GI50 was 4.69 µM (inactive) in test [1]; 4.62 µM (inactive) in [2]; 49 µM (inactive) in test [3]; 19.3 µM (inactive) in [4]; 14.7 µM (inactive) in test [5]; 6.4 µM (inactive) in test [6]. The GI50 in test [7] is 7.64 µM (inactive); in test [8], 11.6 µM (inactive); in test [9], 4.89 µM (inactive); in test [10], 3.9 µM; in test [11], 3.87 µM (inactive); in test [12], 28.8 µM (inactive). Besides, the GI50 in test [13] was 1.41 µM (inactive); in test [14], 26.9 µM (inactive); in test [15], 9.91 µM (inactive); in [16], 15.8 µM (inactive); in test [17], 4.27 µM (inactive).

In the case of `CC(=O)Nc1ccc(S(=O)(=O)Nc2cnc3ccccc3n2)cc1`, the GI50 in [1], in test [2], in test [3], in test [4], in [5] and in test [6] was > 100 µM (inactive) throughout. In addition, the GI50 in [7] was > 100 µM (inactive); in test [8] it was > 100 µM (inactive); in test [9], > 100 µM (inactive); in test [10], more than 100 µM; in test [11] it was > 100 µM (inactive); in test [12] it was 63.5 µM (inactive). The GI50 in test [13], in [14], in test [15], in test [16] and in test [17] was > 100 µM (inactive) in each case.
